In patent US4833146A, “Tertiary hydroxyalkylxanthines, medicaments containing them and their use” (priority 1985, dated 1989):
Read-outs that look alike come from different tables or passages of the source.

Assays:
ischemic skeletal muscle [1] = test: Action on disturbed peripheral arterial circulation: pO2 in ischemic skeletal muscle, occlusion model on dogs; assay type: in vivo, male beagle dogs; design: key: W = % frequency of positive experiments × mean % pO2 increase; settings: dog occlusion model
Protocol: The experimental animals used were male beagle dogs under sodium pentobarbital anesthesia (35 mg/kg intraperitoneally), on whose right hind extremity the femoral artery and a certain area of the lower leg muscle was exposed and on whose left hind extremity the femoral vein was exposed and a cannula inserted for infusion of the product and the femoral artery was exposed and a cannula inserted for blood pressure measurements. The animals were relaxed by administration of alcuronium chloride (0.1 mg/kg intravenously and then 0.05 mg/kg intraperitoneally every 30 minutes) and artificially ventilated in order on the one hand to avoid spontaneous contractions of the muscle with an adverse effect on the pO2 measurements and on the other hand to guarantee a uniform supply of respiratory oxygen. Another catheter inserted into the femoral vein of the right hind extremity was used to monitor the lactate concentration in the venous outflow. […]
In each experiment, the maximum percentage rise in the pO2 following administration of the substance during vascular occlusion was used as the measurement parameter for the action of the product (n=2-11). A dimensionless activity index W was calculated from three measurement values for each compound by obtaining the product of the percentage frequency of positive experiments and the average percentage increase in pO2 resulting from the positive individual values, this index both taking into account interindividual differences in the topology of the vascularization of the muscle and also recording responders and nonresponders to the test compounds and accordingly permitting a more reliable activity comparison amongst the individual products.

[2] = tested on: regional cerebral circulation; test: Action on regional cerebral circulation of anesthetized cats (heat conducting technique); assay type: in vivo, cats of both sexes; settings: Felis catus, iv, 3 mg/kg i.v., read-out: Average increase in cerebral circulation as Δλ in %
Protocol: The percentage increase in the heat transport number λ after administration of the product is thus a measure of the improvement in circulation.
The compounds were administered intravenously in aqueous solution. The dose was 3 mg of test substance per kg of body weight. 3 to 5 individual experiments were carried out for each test product, and the average percentage increase in cerebral circulation was determined from the measurement data obtained.

in vivo = settings: mouse, in vivo, single dose, 7 days, read-out: Toxicity LD50 (mouse)
Protocol: (§1) The LD50 ranges were determined by the standard method via the mortality which arose within 7 days in NMRI mice following a single intravenous (i.v.) or intraperitoneal (i.p.) dose (NMRI=Naval Medical Research Institute).

NMRI mice = test: in vivo; settings: single dose, 7 days, Table 3
Protocol: as §1

[3] = tested on: isolated perfused rabbit ear; test: Inhibiting effect on vascular contraction induced with norfenefrine on the isolated perfused rabbit ear
Excerpt: It is today generally recognized that exclusively vasodilating drugs or agents with a very potent vasodilating action component are unsuitable for the treatment of disturbances in the microcirculation because, on the one hand, the physiological vasodilatory reserve as a rule is already completely exhausted, and on the other hand there is the risk of a steal phenomenon, which means a harmful redistribution of the nutritive blood flow in the microcirculation at the expense of the already undersupplied diseased tissue. The inhibiting effect on vascular contraction induced with norfenefrine on the isolated perfused rabbit ear was therefore investigated.

[4] = tested on: ischemic skeletal muscle (tibialis anterior and extensor digitorum longus); test: Chronic experiment on rats with unilateral occlusion of the iliac artery: metabolism in ischemic skeletal muscle (histochemical staining); assay type: in vivo
ischemic skeletal muscle [5] = test: Chronic experiment: contractility of the ischemic skeletal muscle in rats with a ligated right femoral artery; assay type: in vivo; settings: 25 mg/kg daily oral, 20 days
Protocol: The superiority of the xanthines of the formula I was also to be seen from another chronic experiment in which the influence on the contractility of the ischemic skeletal muscle in rats with a ligated right femoral artery was investigated. The animals received the particular test product in a daily oral dose of 25 mg/kg by a stomach tube for 20 days. Thereafter, the fatigability of the ischemic muscle on electrical stimulation with about 80 contractions per minute was determined via the decrease in contractile force after stimulation for 1, 15 and 45 minutes in comparison with untreated control animals. […] This improvement was accompanied by an increase in the mitochondrial respiratory control rate (RCR). […] The compounds according to the invention are accordingly also suitable for the treatment of muscular energy metabolism disorders of various causes, particularly mitochondrial myopathy.

[6] = animals and humans, cited from earlier work; for "liver first-pass" effect: especially on oral administration; for biotransformation: enzymatic oxidation of the oxo- or hydroxyhexyl side chain

Row | Compound | Activity index W (ischemic skeletal muscle [1]; i.v. 0.6 mg/kg/min) | change in vivo at 3 mg/kg [2] [%] | Activity index W (ischemic skeletal muscle [1]; i.d. 25 mg/kg) | other results
1 | CCCn1cnc2c1c(=O)n(CCCCCC(C)(C)O)c(=O)n2C [Example 16] | 999 | 25.8 | – | LD50 at 168 h (in vivo; ip, Table 2): 150 to 300 mg/kg; Toxicity LD50 (mouse) (NMRI mice; i.p.): 150 to 300 mg/kg
2 | COCCOCn1cnc2c1c(=O)n(CCCCC(C)(C)O)c(=O)n2C [Example 44] | 1199 | – | – | –
3 | Cn1c(=O)n(CCCCC(C)(C)O)c(=O)c2[nH]cnc21 [Example 6, 1-(5-Hydroxy-5-methylhexyl)-3-methylxanthine] | – | – | 700 | –
4 | CCn1c(=O)n(CCCCC(C)(C)O)c(=O)c2c1ncn2C [Example 17] | 1525 | 9.4 | – | LD50 at 168 h (in vivo; iv, Table 3): > 200 mg/kg
5 | CCOCCn1cnc2c1c(=O)n(CCCCC(C)(C)O)c(=O)n2C [Example 39] | 1567 | – | 1996 | –
6 | COCn1cnc2c1c(=O)n(CCCCCC(C)(C)O)c(=O)n2C [Example 27] | – | 10.3 | – | LD50 at 168 h (in vivo; iv, Table 3): > 200 mg/kg
7 | CCOCn1cnc2c1c(=O)n(CCCCC(C)(C)O)c(=O)n2C [Example 5, 7-Ethoxymethyl-1-(5-hydroxy-5-methylhexyl)-3-methylxanthine] | – | – | 2909 | Activity index W (ischemic skeletal muscle [1]; i.v. 0.3 mg/kg/min): 2080; LD50 at 168 h (in vivo; ip, Table 2): 300 to 600 mg/kg; LD50 at 168 h (in vivo; iv, Table 2): 150 to 300 mg/kg; inhibition of the norfenefrine action ([3]; up to a concentration of 100 μg/ml): no inhibition; proportion of oxidative fibers in the two muscles of the ischemic extremity ([4]; 3 mg/kg intraperitoneally three times daily, 5 weeks): increased significantly; mitochondrial respiratory control rate (RCR) (ischemic skeletal muscle [5]): increase; contractility values reached in the ischemic muscle (ischemic skeletal muscle [5]; compared with healthy muscle of untreated animals): normal contractility values like those in the left healthy (non-ischemic) muscle of untreated animals being reached; muscular performance in the ischemic extremity (ischemic skeletal muscle [5]; electrical stimulation for 1, 15 and 45 minutes): significant improvement
8 | CCCn1cnc2c1c(=O)n(CCCC(C)(C)O)c(=O)n2CC [Example 22] | – | 12 | – | LD50 at 168 h (in vivo; iv, Table 3): > 200 mg/kg
9 | Cn1c(=O)c2c(ncn2CCCCC(C)(C)O)n(C)c1=O [Example 4, 7-(5-Hydroxy-5-methylhexyl)-1,3-dimethylxanthine] | 1300 | – | – | LD50 at 168 h (in vivo; iv, Table 2): 100 to 200 mg/kg
10 | Cn1cnc2c1c(=O)n(CCCCC(C)(C)O)c(=O)n2C [Example 14, 1-(5-Hydroxy-5-methylhexyl)-3,7-dimethylxanthine] | 960 | – | – | –
11 | Cn1c(=O)n(CCCCC(C)(C)O)c(=O)c2c1ncn2CCCO [Example 50] | 2631 | – | 733 | –
12 | CCCn1cnc2c1c(=O)n(CCCC(C)(C)O)c(=O)n2C [Example 12, 1-(4-Hydroxy-4-methylpentyl)-3-methyl-7-propylxanthine] | 866 | – | 2337 | –
13 | COCn1cnc2c1c(=O)n(CCC(C)(C)O)c(=O)n2C [Example 32] | 2650 | – | 566 | –
14 | CCOCCOCCn1cnc2c1c(=O)n(CCCCC(C)(C)O)c(=O)n2CC [Example 48] | – | 14.6 | – | LD50 at 168 h (in vivo; iv, Table 3): > 200 mg/kg
15 | COCn1cnc2c1c(=O)n(CCCCC(C)(C)O)c(=O)n2C [Example 28] | – | – | 2100 | –
16 | CC(=O)CCCCn1c(=O)c2c(ncn2C)n(C)c1=O [Pentoxifylline, 3,7-dimethyl-1-(5-oxohexyl)-xanthine, reference compound] | – | 8.6 | – | dilating effect on the norfenefrine-contracted vessels ([3]; concentration range from 10 to 100 μg/ml): dose-dependent dilating effect; influence on muscular metabolism in the ischemic skeletal muscle ([4]; chronic experiment, iliac artery occlusion): no direct influence; action in these experiments (ischemic muscle contractility) (ischemic skeletal muscle [5]): no action; "liver first-pass" effect [6]: pronounced; biotransformation [6]: rapid and complete
17 | CCCn1c(=O)c2c(ncn2CCCCC(C)(C)O)n(C)c1=O [Example 3, 7-(5-Hydroxy-5-methylhexyl)-3-methyl-1-propylxanthine] | 1650 | 15.5 | 1250 | LD50 at 168 h (in vivo; iv, Table 2): 100 to 200 mg/kg; Toxicity LD50 (mouse) (NMRI mice; i.v.): 100 to 200 mg/kg
18 | CC(O)CCCCn1c(=O)c2c(ncn2C)n(C)c1=O (stereo not shown) [1-(5-hydroxyhexyl)-3,7-dimethylxanthine] | – | – | – | "liver first-pass" effect [6]: pronounced; biotransformation [6]: rapid and complete
19 | CCCn1cnc2c1c(=O)n(CCCCC(C)(C)O)c(=O)n2CC [Example 18] | 1578 | 9.4 | – | LD50 at 168 h (in vivo; iv, Table 2): 100 to 200 mg/kg; Toxicity LD50 (mouse) (NMRI mice; i.v.): 100 to 200 mg/kg
20 | CC(O)Cn1cnc2c1c(=O)n(CCCCC(C)(C)O)c(=O)n2C (stereo not shown) [Example 8, 1-(5-Hydroxy-5-methylhexyl)-7-(2-hydroxypropyl)-3-methylxanthine] | 1400 | – | – | –
21 | CCn1c(=O)n(CCCCC(C)(C)O)c(=O)c2c1ncn2CCOC [Example 37] | 1400 | – | 950 | –
22 | CCCn1cnc2c1c(=O)n(CCCCC(C)(C)O)c(=O)n2C [Example 9, 1-(5-Hydroxy-5-methylhexyl)-3-methyl-7-propylxanthine] | – | 9.4 | – | LD50 at 168 h (in vivo; iv, Table 3): 100 to 200 mg/kg
23 | CCC(C)(O)CCCCn1c(=O)c2c(ncn2C)n(C)c1=O (stereo not shown) [Example 10, 1-(5-Hydroxy-5-methylheptyl)-3,7-dimethylxantine] | – | – | 1965 | –
24 | CCn1c(=O)n(CCCCC(C)(C)O)c(=O)c2c1ncn2CCCOC [Example 43] | – | 19.8 | – | LD50 at 168 h (in vivo; iv, Table 3): > 200 mg/kg
